In US20100233156A1, “Treating Central Nervous System Injury with Beta and Gamma Secretase Inhibitors” (GEORGETOWN UNIVERSITY, priority 2009, published 2010):
“Also recorded” adds a separate entry of the source.

Assays:
γ-secretase = assay: Aβ concentrations in DAPT-treated TBI mice, to confirm γ-secretase inhibition; type: in vivo, mouse; settings: three hours after final drug administration
Protocol: (§1) The other secretase involved in amyloidogenic processing of APP is γ-secretase, and the pharmacological inhibitor N-[N-(3,5-difluorophenacetyl-L-alanyl)]-S-phenlyglycine t-butyl ester (DAPT) was used to block enzyme activity. […] Each mouse received the initial dose 15 minutes after CCI or sham surgery and then twice daily for 21 days. This dosing regime was implemented because Aβ is known to drop after γ-secretase inhibition before recovering over several hours (Abramowski et al., J. Pharmacol. Exp. Ther. 327:411-24 (2008), El Mouedden et al., Curr. Pharm. Des. 12:671-6 (2006)). To confirm γ-secretase inhibition in DAPT-treated mice, Aβ concentrations were measured. Three hours after final drug administration, Aβ levels were reduced by 25% (13.76±0.8 fmol per mg protein (vehicle-treated TBI mice) versus 10.42±0.4 fmol per mg protein (DAPT-treated TBI mice); P<0.01), and APP carboxy-terminal fragments accumulated.

[1] = tested on: TBI mice (controlled cortical impact); assay: Beam walk test (fine motor coordination) after CCI; type: in vivo, mouse; settings: for foot faults (beam walk): TBI mice, 50 steps
Protocol: To test the effect of β-secretase on TBI outcome, the B-APP cleaving enzyme-1 (BACE1) Bace1^−/− knockout mouse was used. Bace1 is the initial rate-limiting enzyme for Aβ production. Bace1^−/− mice are unable to produce any species of Aβ (Cai et al., Nat. Neurosci. 4:233-4 (2001)), and the absence of Aβx-40 in brain homogenates by ELISA (0.1±0.09 fmol per mg protein) was confirmed. CCI surgery was performed, and the beam walk test was used to detect fine motor coordination aberrations (Fox et al., J. Neurotrauma 15:599-614 (1998)). This test examines the number of errors (foot faults) made by the right hind limb over 50 steps. The mice were trained on the test before injury, and the test was repeated on 1 day, 3 days, 7 days, 14 days, and 21 days after TBI. Injured Bace1^−/− mice made fewer foot faults at multiple time points, with a 38% final improvement over injured Bace1^+/+ mice (FIG. 4, P<0.001).
as §1
(§2) On the day after CCI, the first beam walk test was conducted. Vehicle-treated TBI mice made 50±0 foot faults and improved to 43±2 foot faults on the final day of testing (FIG. 9). […] Spatial learning with the Morris water maze was also tested.

[2] = tested on: TBI mice (controlled cortical impact); assay: Morris water maze (spatial learning) after CCI; type: in vivo, mouse
Protocol: A Morris water maze paradigm was used to assess spatial learning by training mice to locate a hidden, submerged platform using extramaze visual information (Fox et al., J. Neurotrauma 15:599-614 (1998)). The test was conducted 15-18 days after injury, and each mouse was tested for four trials per day for four consecutive days. Uninjured Bace1^+/+ mice were used as a behavioral control. Injured Bace1^+/+ mice had significant learning impairments on all 4 days of testing compared to uninjured Bace1^+/+ mice (P<0.01). Injured Bace1^−/− mice, however, improved rapidly, and on the final day of testing were indistinguishable from uninjured mice (FIG. 5, P<0.01). All groups had similar escape latencies when presented with a visual platform probe test (uninjured Bace1^+/+, 23.4±6.3 seconds; injured Bace1^+/+, 21.1±7.8 seconds; injured Bace1^−/−, 21.2±4.9 seconds).
as §1, §2

[3] = tested on: TBI mice (controlled cortical impact); assay: MRI of brain lesion 21 days after CCI; type: in vivo, mouse
From the text: Five mice in each TBI group were randomly chosen for T2-weighted magnetic resonance imaging (MRI) analysis at 21 days after trauma. […] This was confirmed by fixed brain tissue sections (FIG. 7). […] Total lesion volume was reduced by 30% in […] (FIG. 9, P<0.05).
(§3) The representative MRI images show a vehicle-treated TBI mouse with the brain lesion visible through 4 mm (8 mm×0.5 mm longitudinal sections) of tissue, whereas DAPT treatment results in damage through only 1.5 mm (3 mm×0.5 mm sections) (FIG. 13). […] The damage to the hippocampus was not as extensive as that seen in the Bacel study; however, cell loss in the CA1 region of mice after TBI was clearly visible (FIG. 16). This allowed quantification of cell loss in the hippocampus (FIG. 17). Neurons were stained with NeuN, a neuronal marker, and an unbiased stereology count was performed. TBI caused a 34% decrease in NeuN-positive cells in the CA1 region of the ipsilateral hippocampus (P<0.05). DAPT treatment attenuated this cell loss, resulting in a 10% reduction in CA1 neurons (P<0.05 versus vehicle-treated TBI mice).

[4] = tested on: TBI mice (controlled cortical impact); assay: Histological assessment of lesion volume and NeuN stereology count of CA1 neurons; type: in vivo, mouse
From the text: as §3

mouse model of stroke = settings: after ischemia and reperfusion; Arumugam et al. 2006; cited from earlier work

Compound: C[C@H](NC(=O)Cc1cc(F)cc(F)c1)C(=O)N[C@H](C(=O)OC(C)(C)C)c1ccccc1 [DAPT, N-[N-(3,5-Difluorophenacetyl)-L-alanyl]-S-phenylglycine t-butyl ester]
- Aβ levels reduced (γ-secretase; DAPT 30 mg per kg orally twice daily for 21 days, versus vehicle-treated TBI mice): 25%
- APP carboxy-terminal fragments (γ-secretase; DAPT-treated TBI mice): accumulated
- Aβ concentration (γ-secretase; DAPT-treated TBI mice): 10.42±0.4 fmol per mg protein
- improvement in foot faults over vehicle-treated TBI mice ([1]; 21 days after injury): 42%
- foot faults (beam walk) ([1]; 21 days after injury): 25±5 foot faults
- foot faults (beam walk) ([1]; day after surgery): 48±1 foot faults
- recovery of fine motor coordination on beamwalk test ([1]; after 21 days, in words): Recovery is improved
- escape latency, visible platform probe ([2]; TBI mice): 17.5 ± 3.7 s
- spatial learning in Morris water maze ([2]; TBI mice, 4 days of test, in words): indistinguishable from sham-injured mice; also recorded: prevents these deficits
- escape latency, visible platform probe ([2]; sham-operated mice): 13.6 ± 3.4 s
- lesion size by MRI ([3]; injured mice, in words): substantially reduced lesion size
- depth of tissue through which damage is visible on MRI ([3]; representative images, 0.5 mm sections): 1.5 mm
- tissue sparing (histology) ([4]; H&E sections, in words): spared large areas of cortex and subcortical white matter tracts; also recorded: Subcortical white matter tracts are spared
- reduction in CA1 neurons (NeuN-positive cells, ipsilateral hippocampus) ([4]; TBI mice, stereology count): 10%
- neuronal populations in ipsilateral CA1 versus contralateral ([4]; stereology cell counts, in words): This reduction is prevented
- lesion volume ([4]; versus vehicle control, in words): reduced
- lesion volume decreased ([4]; versus vehicle-treated TBI mice): > 70%
- infarct area (mouse model of stroke): reduced infarct area
- neurological function (mouse model of stroke): improved neurological function
